Assays:
Type in all cases: in vivo
[1] = system: Kochia (Kochia scoparia); experiment: Test A preemergence; settings: Bassia scoparia, pre-emergence, 240 h, 0 to 100 scale (0 no effect, 100 complete control), read-out: Plant response rating, Kochia
Procedure, shortened: (§1)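 Seeded soil received test chemicals as a preemergence directed spray, and seedlings at one to two leaves, 2–10 cm tall, received them postemergence, in a non-phytotoxic, surfactant-containing solvent mixture. Pots were held in a greenhouse for approximately 10 d, then rated for injury from 0, no effect, to 100, complete control.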

[2] = system: barnyardgrass (Echinochloa crus-galli); experiment: Test A preemergence; settings: Echinochloa crus-galli, pre-emergence, 240 h, 0 to 100 scale (0 no effect, 100 complete control), read-out: Plant response rating, Barnyardgrass
Procedure, shortened: as §1

[3] = system: giant foxtail (Setaria faberii); experiment: Test A preemergence; settings: Setaria faberi, pre-emergence, 240 h, 0 to 100 scale (0 no effect, 100 complete control), read-out: Plant response rating, Foxtail, Giant
Procedure, shortened: as §1

[4] = system: pigweed (Amaranthus retroflexus); experiment: Test A preemergence; settings: Amaranthus retroflexus, pre-emergence, 240 h, 0 to 100 scale (0 no effect, 100 complete control), read-out: Plant response rating, Pigweed
[5] = system: ragweed (common ragweed, Ambrosia elatior); experiment: Test A preemergence; settings: Ambrosia artemisiifolia, pre-emergence, 240 h, 0 to 100 scale (0 no effect, 100 complete control), read-out: Plant response rating, Ragweed
Procedure, shortened: as §1

[6] = system: ryegrass, Italian (Italian ryegrass, Lolium multiflorum); experiment: Test A preemergence; settings: Lolium multiflorum, pre-emergence, 240 h, 0 to 100 scale (0 no effect, 100 complete control), read-out: Plant response rating, Ryegrass, Italian
Procedure, shortened: as §1

[7] = system: Galium (catchweed bedstraw, Galium aparine); experiment: Test A postemergence; settings: Galium, post-emergence, 240 h, Postemergence, read-out: Plant response rating, Galium
Procedure, shortened: as §1

[8] = system: Kochia (Kochia scoparia); experiment: Test A postemergence; settings: Bassia scoparia, post-emergence, 240 h, Postemergence, read-out: Plant response rating, Kochia
Procedure, shortened: as §1

[9] = system: barnyardgrass (Echinochloa crus-galli); experiment: Test A postemergence; settings: Echinochloa crus-galli, post-emergence, 240 h, Postemergence, read-out: Plant response rating, Barnyardgrass
Procedure, shortened: as §1

[10] = system: blackgrass (Alopecurus myosuroides); experiment: Test A postemergence; settings: Alopecurus myosuroides, post-emergence, 240 h, Postemergence, read-out: Plant response rating, Blackgrass
Procedure, shortened: as §1

[11] = system: corn (Zea mays); experiment: Test A postemergence; settings: Zea mays, post-emergence, 240 h, Postemergence
Procedure, shortened: as §1

[12] = system: giant foxtail (Setaria faberii); experiment: Test A postemergence; settings: Setaria faberi, post-emergence, 240 h, Postemergence, read-out: Plant response rating, Foxtail, Giant
Procedure, shortened: as §1

[13] = system: pigweed (Amaranthus retroflexus); experiment: Test A postemergence; settings: Amaranthus retroflexus, post-emergence, 240 h, Postemergence, read-out: Plant response rating, Pigweed
Procedure, shortened: as §1

[14] = system: ragweed (common ragweed, Ambrosia elatior); experiment: Test A postemergence; settings: Ambrosia artemisiifolia, post-emergence, 240 h, Postemergence, read-out: Plant response rating, Ragweed
Procedure, shortened: as §1

[15] = system: ryegrass, Italian (Italian ryegrass, Lolium multiflorum); experiment: Test A postemergence; settings: Lolium multiflorum, post-emergence, 240 h, Postemergence, read-out: Plant response rating, Ryegrass, Italian
Procedure, shortened: as §1

[16] = system: wheat (Triticum aestivum); experiment: Test A postemergence; settings: Triticum aestivum, post-emergence, 240 h, Postemergence, read-out: Plant response rating, Wheat
Procedure, shortened: as §1

[17] = 125 g ai/ha, visual injury after approx. 10 d, 0 to 100 scale, 0 no effect, 100 complete control
[18] = 500 g ai/ha, visual injury, 0 to 100 scale (0 no effect, 100 complete control), approx. 10 d

## CN1CC[C@H](c2cccc(C(F)(F)F)c2)[C@@H](C(=O)Nc2ccc(F)c(F)c2F)C1=O [Compound 1395]
[1]; 500 g ai/ha, preemergence
  pest or weed control at 500 g/ha: 0%
[1]; Preemergence, 125 g ai/ha
  pest or weed control at 125 g/ha: 0%
[2]; 500 g ai/ha, preemergence
  pest or weed control at 500 g/ha: 90%
[2]; Preemergence, 125 g ai/ha
  pest or weed control at 125 g/ha: 90%
[3]; 500 g ai/ha, preemergence
  pest or weed control at 500 g/ha: 90%
[3]; Preemergence, 125 g ai/ha
  pest or weed control at 125 g/ha: 90%
[4]; 500 g ai/ha, preemergence
  pest or weed control at 500 g/ha: 0%
[4]; Preemergence, 125 g ai/ha
  pest or weed control at 125 g/ha: 0%
[5]; 500 g ai/ha, preemergence
  pest or weed control at 500 g/ha: 0%
[5]; Preemergence, 125 g ai/ha
  pest or weed control at 125 g/ha: 0%
[6]; 500 g ai/ha, preemergence
  pest or weed control at 500 g/ha: 40%
[6]; Preemergence, 125 g ai/ha
  pest or weed control at 125 g/ha: 50%
[7]; [17]
  pest or weed control at 125 g/ha: 0%
[7]; [18]
  pest or weed control at 500 g/ha: 0%
[8]; [17]
  pest or weed control at 125 g/ha: 0%
[8]; [18]
  pest or weed control at 500 g/ha: 0%
[9]; [17]
  pest or weed control at 125 g/ha: 90%
[9]; [18]
  pest or weed control at 500 g/ha: 90%
[10]; [17]
  pest or weed control at 125 g/ha: 70%
[10]; [18]
  pest or weed control at 500 g/ha: 0%
[11]; [17]
  Corn plant response rating (crop injury, 0 = no effect, 100 = complete kill) at 125 g/ha: 50%
[11]; [18]
  Corn plant response rating (crop injury, 0 = no effect, 100 = complete kill) at 500 g/ha: 70%
[12]; [17]
  pest or weed control at 125 g/ha: 90%
[12]; [18]
  pest or weed control at 500 g/ha: 90%
[13]; [17]
  pest or weed control at 125 g/ha: 0%
[13]; [18]
  pest or weed control at 500 g/ha: 0%
[14]; [17]
  pest or weed control at 125 g/ha: 0%
[14]; [18]
  pest or weed control at 500 g/ha: 0%
[15]; [17]
  pest or weed control at 125 g/ha: 20%
[15]; [18]
  pest or weed control at 500 g/ha: 20%
[16]; [17]
  plant injury at 125 g/ha: 20%
[16]; [18]
  plant injury at 500 g/ha: 40%

Source: US12077503B2, “Substituted cyclic amides and their use as herbicides” (FMC CORPORATION, priority 2015, dated 2024)
